In patent US8216975B2, “Method of labelling soya varieties” (priority 2004, dated 2012):

What was measured:
[1] = tested on: soya varieties S40R-9 and S24-K4; experiment: Field carry-over test: phytotoxicity to soya grown as subsequent crop to maize treated with HPPD herbicide; format: in vivo, Glycine max
Text: Biological Test Method for the Selection of Suitable Sensitive Reference Soybean Varieties in the Field:
• a) Compound No. 2.13 according to Table 2 below was applied pre- or post-emergence to maize in three repetitions in a field in the vicinity of Ames, Iowa, USA, under practical conditions at a suitable time (pre-emergence April-May; post-emergence May-June) in a field trial using concentrations of 100, 200 and 400 g a.i./ha. Application of fertilizer, pest control and other cultivation measures were carried out in accordance with the standards customary in agriculture. Because not all weeds were controlled by the test herbicides, the test plots were kept weed-free over the entire vegetation period by the application of non-soil-active herbicides. • b) The plots were harvested and labeled in the autumn. At the customary time in […] (April/May) of the following year, the soybeans to be tested were sown in the labeled plots from the previous year and the condition of the plants on reaching the different physiological growth stages was evaluated (see Table 1). • c) The evaluation was carried out in % general phytotoxicity, which records any effects such as growth inhibition, bleaching, chlorosis, scorching or thinning. 0-4% phytotoxicity is acceptable, >4% is not acceptable under practical field conditions.
Tables A and B: Phytotoxicity of the soya varieties S40R-9 and S24-K4 as a subsequent crop to maize in which weed control has been carried out using the herbicide of formula 2.13. The herbicide was applied in an amount of 400 g/ha; in Table B an oil adjuvant (Agridex) was additionally used in an amount of 1.25% by volume.

soybean varieties = experiment: Greenhouse pot test: soybean varieties sown in soil treated with HPPD inhibitor, ED20 and factor versus reference variety; format: in vivo, Glycine max
Protocol: Test Method for the Selection of Suitable Soybean Varieties: Categorisation of the Soybean Varieties According to Their Sensitivity to HPPD Herbicide Residues and Comparison with Sensitive and Non-Sensitive Soybean Varieties:
• 1. A non-sterilised soil is treated with the HPPD inhibitor being tested. The HPPD inhibitor being tested is applied in concentrations of 0, 20, 40 and 80 ppb and incorporated homogeneously into the soil. The soil so treated is then introduced into pots (2⅝ inch×2⅝ inch×3½ inch) and lightly firmed. • 2. Sowing: The soybean varieties being tested are sown in the pots treated as described above as follows: 3 seed grains are used per pot, the seeds being pressed lightly into the soil (under the surface of the soil) and covered over with soil. In each test, varieties having known sensitivity are also tested as reference. These are the soybean varieties NK S40-R9 and Pioneer P94B01. Shortly after germination, the plants are thinned out to two plants per pot. The plants receive an optimum supply of water and nutrients and are kept in a greenhouse at 20-24° C., with 16 hours exposure to light per day. • 3. 3-4 Weeks after sowing, the condition of the plants is evaluated visually. Symptoms of damage to the plants, such as chlorosis, bleaching and growth inhibition (‘stunting’), are assessed and compared with an untreated soya plant of the same variety. • 4. Calculation: The repetitions are combined and a linear regression analysis is carried out with non-transformed data. ED20 values (=effective dose at which damage is 20% in comparison with the untreated control) are calculated from the regression curve for each variety. The soybeans are grouped according to whether they are “sensitive” or “tolerant” by comparing the ED20 values of the test varieties with those of the standard varieties, that is to say by determining a factor with respect to the reference variety.

In the case of `COCCOCc1nc(C(F)(F)F)ccc1C(=O)C1=C(O)C2CCC(C2)C1=O` (stereo not drawn) [Compound No. 2.13], the “% Phytotoxicity (mean value)” value ([1]; Table A, soya variety NK S40-R9, 400 g/ha on maize, 29 days after sowing, 404 days after herbicide application, BBCH12/BBCH13) is reported as 6.67%, the “% Phytotoxicity (mean value)” value ([1]; Table A, soya variety NK S40-R9, 400 g/ha on maize, 42 days after sowing, 417 days after herbicide application, BBCH14/BBCH14) is reported as 13% and the “% Phytotoxicity (mean value)” value ([1]; Table A, soya variety NK S40-R9, 400 g/ha on maize, 56 days after sowing, 431 days after herbicide application, BBCH16/BBCH17) is reported as 14.33%. For the same compound, the “% Phytotoxicity (mean value)” value ([1]; Table A, soya variety NK-S24-K4, 400 g/ha on maize, 29 days after sowing, 404 days after herbicide application, BBCH12/BBCH13) was 0%, the “% Phytotoxicity (mean value)” value ([1]; Table A, soya variety NK-S24-K4, 400 g/ha on maize, 42 days after sowing, 417 days after herbicide application, BBCH14/BBCH14) was 0% and the “% Phytotoxicity (mean value)” value ([1]; Table A, soya variety NK-S24-K4, 400 g/ha on maize, 56 days after sowing, 431 days after herbicide application, BBCH16/BBCH17) was 0%. The “% Phytotoxicity (mean value)” value ([1]; Table B, soya variety NK S40-R9, 400 g/ha on maize plus oil adjuvant (Agridex) 1.25% by volume, 29 days after sowing, 404 days after herbicide application, BBCH12/BBCH13) was 36.67%, the “% Phytotoxicity (mean value)” value ([1]; Table B, soya variety NK S40-R9, 400 g/ha on maize plus oil adjuvant (Agridex) 1.25% by volume, 42 days after sowing, 417 days after herbicide application, BBCH14/BBCH14) was 49.33% and the “% Phytotoxicity (mean value)” value ([1]; Table B, soya variety NK S40-R9, 400 g/ha on maize plus oil adjuvant (Agridex) 1.25% by volume, 56 days after sowing, 431 days after herbicide application, BBCH16/BBCH17) was 56.67%. For the same compound, the “% Phytotoxicity (mean value)” value ([1]; Table B, soya variety NK-S24-K4, 400 g/ha on maize plus oil adjuvant (Agridex) 1.25% by volume, 29 days after sowing, 404 days after herbicide application, BBCH12/BBCH13) was 5.67%, the “% Phytotoxicity (mean value)” value ([1]; Table B, soya variety NK-S24-K4, 400 g/ha on maize plus oil adjuvant (Agridex) 1.25% by volume, 42 days after sowing, 417 days after herbicide application, BBCH14/BBCH14) was 3.33% and the “% Phytotoxicity (mean value)” value ([1]; Table B, soya variety NK-S24-K4, 400 g/ha on maize plus oil adjuvant (Agridex) 1.25% by volume, 56 days after sowing, 431 days after herbicide application, BBCH16/BBCH17) was 1.67%. The “Factor with respect to reference variety NK S40-R9, based on ED20 values” (from here on “Factor”) (soybean varieties; soya variety AGI 7370 RR) was 1.0, the “Factor” value (soybean varieties; soya variety Agripro 2502 RR) was 5.3 and the “Factor” value (soybean varieties; soya variety Agripro 2547 RR/N) was 4.7. For the same compound, the “Factor” value (soybean varieties; soya variety Agway APK 190) was 12.2, the “Factor” value (soybean varieties; soya variety Agway APK256 RR) was 5.6 and the “Factor” value (soybean varieties; soya variety Asgrow 1602) was 5.4. For the same compound, the “Factor” value (soybean varieties; soya variety Asgrow 2105) was 6.5, the “Factor” value (soybean varieties; soya variety Asgrow 2705) was 5.0 and the “Factor” value (soybean varieties; soya variety Asgrow AG1401 RR) was 4.5. The “Factor” value (soybean varieties; soya variety Asgrow AG2302) was 4.7, the “Factor” value (soybean varieties; soya variety Asgrow AG3902) was 4.7 and the “Factor” value (soybean varieties; soya variety Asgrow AG4403) was 8.5. For the same compound, the “Factor” value (soybean varieties; soya variety Beck's 336NRR) was 4.5, the “Factor” value (soybean varieties; soya variety Beck's 366NRR) was 4.9 and the “Factor” value (soybean varieties; soya variety D King 4868RR) was 4.4. For the same compound, the “Factor” value (soybean varieties; soya variety Dekalb DK32-51) was 5.3, the “Factor” value (soybean varieties; soya variety Dekalb DKB23-51) was 5.8 and the “Factor” value (soybean varieties; soya variety Dekalb DKB36-51) was 4.2. For the same compound, the “Factor” value (soybean varieties; soya variety Garst 2677 RR) was 4.1, the “Factor” value (soybean varieties; soya variety Gld H H3505RR) was 5.8 and the “Factor” value (soybean varieties; soya variety Kruger 279 RR) was 3.4. The “Factor” value (soybean varieties; soya variety Kruger 323 RR) was 4.3, the “Factor” value (soybean varieties; soya variety MFA RT 3660N) was 4.3 and the “Factor” value (soybean varieties; soya variety Mustang M-222RR) was 0.8. The “Factor” value (soybean varieties; soya variety NK S24-K4) was 3.6, the “Factor” value (soybean varieties; soya variety NK S35-A6) was 5.3 and the “Factor” value (soybean varieties; soya variety NK S40-R9 (reference variety)) was 1.0. For the same compound, the “Factor” value (soybean varieties; soya variety NK S46-W8) was 0.5, the “Factor” value (soybean varieties; soya variety Pioneer 90B51) was 1.1 and the “Factor” value (soybean varieties; soya variety Pioneer 91B33) was 4.9. The “Factor” value (soybean varieties; soya variety Pioneer 91B91) was 3.0, the “Factor” value (soybean varieties; soya variety Pioneer 93B67) was 1.1 and the “Factor” value (soybean varieties; soya variety Pioneer 94B01) was 0.8. For the same compound, the “Factor” value (soybean varieties; soya variety Pioneer 94B54) was 1.6, the “Factor” value (soybean varieties; soya variety Pioneer 9492) was 1.0 and the “Factor” value (soybean varieties; soya variety Pioneer P92B38) was 4.3. For the same compound, the “Factor” value (soybean varieties; soya variety S21-H7 STS) was 5.03, the “Factor” value (soybean varieties; soya variety S34-A9 STS) was 8.0 and the “Factor” value (soybean varieties; soya variety S. Grow SG948RR) was 1.2.
With `CS(=O)(=O)c1ccc(C(=O)C2C(=O)CCCC2=O)c([N+](=O)[O-])c1` [2.04, reference compound] the “Factor” value (soybean varieties; Table D, soya variety S21-H7 STS) was 3.45, the “Factor” value (soybean varieties; Table D, soya variety S34-A9 STS) was 4.56 and the “Factor” value (soybean varieties; Table D, soya variety S40-R9 (reference variety)) was 1.0.
